Assay results taken from ChEMBL document CHEMBL6083292, “Discovery of Novel N-Sulfonamide-tetrahydroquinolines as Potent Retinoic Acid Receptor-Related Orphan Receptor γt (RORγt) Inverse Agonists for the Treatment of Psoriasis” (J Med Chem, 2024).
Calls of active or inactive are those of the source. No cut-off for these calls is given here.

Columns and labels:
[1] = Drug concentration in pig ear assessed as retention amount at 0.0085 g administered intradermally as 4 % ointment measured at 12 hrs; assay type: ADME, tissue-based, Sus scrofa; settings: in vivo, other
[2] = Drug concentration in pig ear assessed as retention rate at 0.0094 g administered intradermally as 4 % ointment measured at 12 hrs; assay type: ADME, tissue-based, Sus scrofa; settings: in vivo, other
[3] = Drug concentration in pig ear assessed as retention rate at 0.0090 g administered intradermally as 4 % ointment measured at 12 hrs; assay type: ADME, tissue-based, Sus scrofa; settings: in vivo, other
[4] = Acute toxicity in BALB/c mouse assessed as body weight gain at 10 to 20 % administered topically as ointment once a day for 12 days; settings: in vivo, topical_or_ocular, 288 h, dose 10-20 %, time 12 day
Mus musculus [5] = assay: Anti-inflammatory activity in imiquimod-induced BALB/c mouse psoriasis model assessed as appearance of smooth skin at 4 % administered topically as ointment once a day for 11 days by H and E staining based analysis; assay type: functional, organism-based; settings: time 11.0 day
Mus musculus [6] = assay: Antiinflammatory activity against imiquimod-induced psoriasis BALB/c mouse model at 1 to 4 % administered topically as ointment once a day for 11 days; assay type: functional, organism-based; settings: time 11.0 day
Mus musculus [7] = assay: Antiinflammatory activity against imiquimod-induced psoriasis BALB/c mouse model assessed as reduction in body weight at 100 mg/kg, ip qd for 7 days; assay type: functional; parameters: scale not given: the % may be the effect or the level left; settings: time 7 day
Mus musculus [8] = assay: Antiinflammatory activity against imiquimod-induced psoriasis BALB/c mouse model assessed as effect on spleen enlargement at 100 mg/kg, ip qd for 7 days; assay type: functional, organism-based; settings: time 7.0 day
[9] = Drug concentration in pig ear assessed as retention amount at 0.0094 g administered intradermally as 4 % ointment measured at 12 hrs; assay type: ADME, tissue-based, Sus scrofa; settings: in vivo, other
Mus musculus [10] = assay: Antiinflammatory activity against imiquimod-induced psoriasis BALB/c mouse model assessed as body weight at 100 mg/kg, ip qd for 7 days; assay type: functional; settings: time 7 day
Mus musculus [11] = assay: Antiinflammatory activity against imiquimod-induced psoriasis BALB/c mouse model assessed as change in ear thickness at 100 mg/kg, ip qd for 7 days; assay type: functional, organism-based; settings: time 7.0 day
Mus musculus [12] = assay: Antiinflammatory activity against imiquimod-induced psoriasis BALB/c mouse model at 4 % administered topically as ointment once a day for 11 days; assay type: functional, organism-based; settings: time 11.0 day
[13] = Drug concentration in pig ear assessed as retention rate at 0.0085 g administered intradermally as 4 % ointment measured at 12 hrs; assay type: ADME, tissue-based, Sus scrofa; settings: in vivo, other
Mus musculus [14] = assay: Anti-inflammatory activity in imiquimod-induced BALB/c mouse psoriasis model assessed as improvement in spinous cell layer at 4 % administered topically as ointment once a day for 11 days by H and E staining based analysis; assay type: functional, organism-based; settings: time 11.0 day
[15] = Metabolic stability in CD-1 mouse liver microsomes assessed as half life preincubated for 5 mins followed by NADPH addition and measured upto 60 mins by LC-MS/MS analysis; assay type: ADME, Microsome; settings: time < 65 min
[16] = target: T1, Nuclear receptor ROR-gamma (Homo sapiens, UniProt P51449); assay: Inverse agonist activity at APC-labeled RORgammat LBD (unknown origin) assessed as inhibition of europium-labeled SRC-1 recruitment incubated for 1 hrs by dual FRET assay
T1 sequence (P51449 whole entry): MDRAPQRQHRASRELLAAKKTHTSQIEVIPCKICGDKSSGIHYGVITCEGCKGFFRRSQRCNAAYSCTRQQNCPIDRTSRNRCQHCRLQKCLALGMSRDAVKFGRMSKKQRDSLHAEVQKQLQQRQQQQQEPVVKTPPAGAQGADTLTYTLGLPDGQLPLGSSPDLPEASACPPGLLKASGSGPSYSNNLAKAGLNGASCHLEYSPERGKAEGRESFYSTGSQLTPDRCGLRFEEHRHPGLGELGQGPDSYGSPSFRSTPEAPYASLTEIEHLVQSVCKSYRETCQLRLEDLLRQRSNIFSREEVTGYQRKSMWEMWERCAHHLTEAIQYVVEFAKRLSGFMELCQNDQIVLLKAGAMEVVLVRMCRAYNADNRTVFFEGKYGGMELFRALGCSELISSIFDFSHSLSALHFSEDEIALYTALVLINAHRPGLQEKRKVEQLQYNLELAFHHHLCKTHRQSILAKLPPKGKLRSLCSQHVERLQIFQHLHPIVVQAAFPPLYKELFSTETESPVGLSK

[17] = Metabolic stability in CD-1 mouse microsomes assessed as intrinsic clearance preincubated for 5 mins followed by NADPH addition and measured upto 60 mins by LC-MS/MS analysis; assay type: ADME, Microsome; settings: time < 65 min, read-out: CLH
[18] = Metabolic stability in CD-1 mouse liver assessed as intrinsic clearance preincubated for 5 mins followed by NADPH addition and measured upto 60 mins by LC-MS/MS analysis; assay type: ADME, tissue-based; settings: time < 65 min, read-out: CLH
[19] = Drug concentration in BALB/c mouse plasma at 4 % administered topically as ointment measured at 2 hrs; assay type: ADME, cell-free; settings: topical_or_ocular
[20] = target: Voltage-gated inwardly rectifying potassium channel KCNH2 (Homo sapiens, UniProt Q12809); assay: Inhibition of hERG at -80 mV holding potential measured for 2.5 mins; assay type: toxicity
[21] = Acute toxicity in BALB/c mouse at 20 % administered topically as ointment once a day for 12 days; settings: in vivo, topical_or_ocular, 288 h, time 12 day
[22] = Toxicity in BALB/c mouse assessed as change in body weight at 0.25 to 4 % administered topically as ointment once a day for 11 days; settings: in vivo, topical_or_ocular, 264 h, dose 0.25-4 %, time 11 day
[23] = Inhibition of mouse Th17 cells differentiation from CD4+ T cells assessed as maximum inhibition flow cytometric analysis relative to control; assay type: functional
[24] = Acute toxicity in BALB/c mouse assessed as signs of mortality at 10 to 20 % administered topically as ointment once a day for 12 days; settings: in vivo, topical_or_ocular, 288 h, dose 10-20 %, time 12 day
[25] = Inhibition of mouse Th17 cells differentiation from CD4+ T cells flow cytometric analysis
[26] = Drug concentration in pig ear assessed as retention amount at 0.0090 g administered intradermally as 4 % ointment measured at 12 hrs; assay type: ADME, tissue-based, Sus scrofa; settings: in vivo, other
[27] = Acute toxicity in BALB/c mouse assessed as signs of morbidity at 10 to 20 % administered topically as ointment once a day for 12 days; settings: in vivo, topical_or_ocular, 288 h, dose 10-20 %, time 12 day
Mus musculus [28] = assay: Anti-inflammatory activity in imiquimod-induced BALB/c mouse psoriasis model assessed as reduction in dermal inflammatory cell infiltration at 4 % administered topically as ointment once a day for 11 days by H and E staining based analysis; assay type: functional, organism-based; settings: time 11.0 day
Mus musculus [29] = assay: Antiinflammatory activity against imiquimod-induced psoriasis BALB/c mouse model at 0.25 to 4 % administered topically as ointment once a day for 11 days; assay type: functional, organism-based; settings: dose 0.25-4 %, time 11.0 day
Mus musculus [30] = assay: Anti-inflammatory activity in imiquimod-induced BALB/c mouse psoriasis model assessed as appearance of clear sebaceous gland at 4 % administered topically as ointment once a day for 11 days by H and E staining based analysis; assay type: functional, organism-based; settings: time 11.0 day
[31] = Drug concentration in pig ear assessed as retention rate at 0.0086 g administered intradermally as 4 % ointment measured at 12 hrs; assay type: ADME, tissue-based, Sus scrofa; settings: in vivo, other
Mus musculus [32] = assay: Antiinflammatory activity against imiquimod-induced psoriasis BALB/c mouse model assessed as change in ear erythema score at 100 mg/kg, ip qd for 7 days; assay type: functional, organism-based; settings: time 7.0 day
Mus musculus [33] = assay: Anti-inflammatory activity in imiquimod-induced BALB/c mouse psoriasis model assessed as appearance of clear hair follicle at 4 % administered topically as ointment once a day for 11 days by H and E staining based analysis; assay type: functional, organism-based; settings: time 11.0 day
[34] = Drug concentration in BALB/c mouse plasma at 4 % administered topically as ointment measured at 10 mins; assay type: ADME, cell-free; settings: topical or ocular
[35] = Toxicity in BALB/c mouse assessed as change in body weight at 4 % administered topically as ointment once a day for 11 days; settings: in vivo, topical_or_ocular, 264 h, time 11 day
Mus musculus [36] = assay: Antiinflammatory activity against imiquimod-induced psoriasis BALB/c mouse model assessed as reduction in spleen to body weight ratio at 5 mg/kg, ip qd for 7 days; assay type: functional, organism-based; settings: time 7.0 day
Mus musculus [37] = assay: Antiinflammatory activity against imiquimod-induced psoriasis BALB/c mouse model assessed as body weight at 5 mg/kg, ip qd for 7 days; assay type: functional; settings: time 7 day
Mus musculus [38] = assay: Antiinflammatory activity against imiquimod-induced psoriasis BALB/c mouse model assessed as reduction in body weight at 5 mg/kg, ip qd for 7 days; assay type: functional; parameters: scale not given: the % may be the effect or the level left; settings: time 7 day

Voltage-gated inwardly rectifying potassium channel KCNH2, sequence (Q12809 whole entry): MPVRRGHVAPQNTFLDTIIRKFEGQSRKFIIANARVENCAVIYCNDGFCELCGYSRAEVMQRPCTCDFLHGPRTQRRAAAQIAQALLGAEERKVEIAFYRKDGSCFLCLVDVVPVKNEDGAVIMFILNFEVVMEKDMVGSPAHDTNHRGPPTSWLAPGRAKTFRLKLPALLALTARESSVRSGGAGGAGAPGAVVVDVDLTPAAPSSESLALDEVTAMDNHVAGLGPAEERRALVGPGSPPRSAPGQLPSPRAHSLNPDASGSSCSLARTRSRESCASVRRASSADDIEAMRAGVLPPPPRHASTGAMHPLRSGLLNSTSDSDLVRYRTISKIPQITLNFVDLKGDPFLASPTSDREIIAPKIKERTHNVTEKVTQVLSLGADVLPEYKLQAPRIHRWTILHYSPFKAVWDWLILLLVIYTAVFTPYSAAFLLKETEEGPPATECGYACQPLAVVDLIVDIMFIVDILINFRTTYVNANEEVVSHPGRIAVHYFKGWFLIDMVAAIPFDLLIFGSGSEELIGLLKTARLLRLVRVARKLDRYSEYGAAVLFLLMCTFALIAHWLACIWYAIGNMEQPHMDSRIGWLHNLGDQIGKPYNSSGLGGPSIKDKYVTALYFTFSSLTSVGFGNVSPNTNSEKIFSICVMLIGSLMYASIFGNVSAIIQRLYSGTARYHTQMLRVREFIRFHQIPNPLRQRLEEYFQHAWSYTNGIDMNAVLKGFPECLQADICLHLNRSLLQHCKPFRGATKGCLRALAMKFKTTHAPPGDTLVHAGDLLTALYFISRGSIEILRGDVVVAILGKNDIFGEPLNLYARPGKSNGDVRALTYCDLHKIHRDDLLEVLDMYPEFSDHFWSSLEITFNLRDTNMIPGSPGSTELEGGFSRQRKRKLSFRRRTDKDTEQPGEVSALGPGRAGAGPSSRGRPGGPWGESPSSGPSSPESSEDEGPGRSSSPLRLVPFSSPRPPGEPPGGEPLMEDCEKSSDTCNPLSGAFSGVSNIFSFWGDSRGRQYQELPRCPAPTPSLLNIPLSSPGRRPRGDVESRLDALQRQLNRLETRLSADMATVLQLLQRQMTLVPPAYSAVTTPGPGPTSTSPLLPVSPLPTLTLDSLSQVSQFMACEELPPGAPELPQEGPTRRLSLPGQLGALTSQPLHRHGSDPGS

CN(Cc1ccc(C(C)(C)C)cc1)S(=O)(=O)N1CCCc2cc(Nc3ccc4c(c3)CCCC4=O)ccc21
Drug uptake [1]: 0.019 mg
Drug uptake [2]: 5.22%
Drug uptake [3]: 3.27%
Activity [4]: Non-toxic
Activity (Mus musculus [5]): Active
Activity (Mus musculus [6]): Active
Activity (Mus musculus [7]): 13%
Activity (Mus musculus [8]): Active
Drug uptake [9]: 0.012 mg
Activity (Mus musculus [10]): 2.41 g
Activity (Mus musculus [11]): Active
Activity (Mus musculus [12]): Active
Drug uptake [13]: 5.79%
Activity (Mus musculus [14]): Active
half-life [15]: 18.2 min
IC50 [16]: 0.094 µM
microsomal CLint [17]: 76 µL/min/mg
CLint scaled [18]: 301 mL/min/kg
Drug uptake [19]: Not_active
IC50 [20]: > 40 µM
Activity [21]: Non-toxic
Activity [22]: Non-toxic
Imax [23]: 95%
Activity [24]: Non-toxic
IC50 [25]: 1.57 µM
Drug uptake [26]: 0.012 mg
Activity [27]: Non-toxic
Activity (Mus musculus [28]): Active
Activity (Mus musculus [29]): Active
Activity (Mus musculus [30]): Active
Drug uptake [31]: 4.82%
Activity (Mus musculus [32]): Active
Activity (Mus musculus [33]): Active
concentration at 10 min [34]: 75 ng/mL

CN(Cc1ccccc1)S(=O)(=O)N1CCCc2cc(N3CC4(CCOCC4)C3)ccc21
IC50 [16]: 19.1 µM

CCc1ccc(N(CC(C)C)S(=O)(=O)c2ccc(OCC3CCOCC3)c(CO)c2)cc1 [GSK2981278]
Activity [35]: Non-toxic
Activity (Mus musculus [12]): Active

CCc1ccc(S(=O)(=O)N2CCCc3cc(N4CCN(C(C)=O)CC4)ccc32)cc1
IC50 [16]: 9.2 µM

CN(Cc1ccccc1)S(=O)(=O)N1CCCc2cc(N3CCN(C(=O)C(F)(F)F)CC3)ccc21
IC50 [16]: 4.9 µM

C[C@@H]1C[C@H]2[C@@H]3CCC4=CC(=O)C=C[C@]4(C)[C@@]3(F)[C@@H](O)C[C@]2(C)[C@@]1(O)C(=O)CO [DEXAMETHASONE]
Activity (Mus musculus [36]): Active
Activity (Mus musculus [37]): 3.43 g
Activity (Mus musculus [38]): 18%

CCc1ccc(N(C)S(=O)(=O)N2CCCc3cc(N4CCN(C(C)=O)CC4)ccc32)cc1
IC50 [16]: 13.1 µM

CN(Cc1ccc(C(C)(C)C)cc1)S(=O)(=O)N1CCCc2cc(N3CCC(C(=O)O)CC3)ccc21
IC50 [16]: 0.29 µM

CC(=O)N1CCN(c2ccc3c(c2)CCCN3S(=O)(=O)N(C)Cc2ccc(C(F)(F)F)o2)CC1
IC50 [16]: 27 µM

CN(Cc1ccccc1)S(=O)(=O)N1CCCc2cc(N3CCN(C(=O)C4CCCC4)CC3)ccc21
IC50 [16]: 3.3 µM

CC(=O)N1CCN(c2cc(F)c3c(c2)CCCN3S(=O)(=O)N(C)Cc2ccccc2)CC1
IC50 [16]: 0.021 µM

CC(=O)c1ccc(Nc2ccc3c(c2)CCCN3S(=O)(=O)N(C)Cc2ccccc2)cc1
IC50 [16]: 7.6 µM

CC(=O)N1CCN(c2ccc3c(c2)N(S(=O)(=O)N(C)Cc2ccccc2)CCC3)CC1
IC50 [16]: 0.097 µM

CN(Cc1ccccc1)S(=O)(=O)N1CCCc2cc(N3CCN(C(=O)C4CCOC4)CC3)ccc21 (stereo not drawn)
IC50 [16]: 18.6 µM

CN(Cc1ccccc1)S(=O)(=O)N1CCCc2cc(N3CCN(C(=O)C4CCC4)CC3)ccc21
IC50 [16]: 13 µM

CN(Cc1ccccc1)S(=O)(=O)N1CCCc2cc(N3CCN(C(=O)C4CCOCC4)CC3)ccc21
IC50 [16]: 6.8 µM

CC(=O)N1CCN(c2ccc3c(c2)CCCN3S(=O)(=O)N(C)Cc2ccc(SC(F)(F)F)cc2)CC1
IC50 [16]: 6.6 µM

CC(=O)N1CCN(c2ccc(CN(C3CCC3)S(=O)(=O)Cc3ccccc3)cc2)CC1
Imax [23]: 90.1%

CC(=O)N1CCN(c2ccc3c(c2)C(C)(C)CCN3S(=O)(=O)N(C)Cc2ccccc2)CC1
IC50 [16]: 9.5 µM

CN(Cc1ccccc1)S(=O)(=O)N1CCCc2cc(N3CC4(COC4)C3)ccc21
IC50 [16]: 0.648 µM

CC(=O)N1CCN(c2ccc3c(c2)CCCN3S(=O)(=O)N(C)Cc2ccc(C(O)(C(F)(F)F)C(F)(F)F)cc2)CC1
IC50 [16]: 1.4 µM

CC(=O)N1CCN(c2ccc3c(c2)CCCN3S(=O)(=O)N(C)C(C)c2ccc(F)cc2)CC1 (stereo not drawn)
IC50 [16]: 27 µM
